Laboratory results taken from patent US10369123B2, “Perk activator for the treatment of neurodegenerative diseases” (DEUTSCHES ZENTRUM FÜR NEURODEGENERATIVE ERKRANKUNGEN E.V. …, priority 2014, dated 2019).
“Also recorded” adds a separate entry of the source.

Experiments:
[1] = system: P301S tau transgenic mice; assay: Morris water maze; format: in vivo, mouse; settings: 2 mg/kg i.p. once daily, tested at 15 weeks of age
Experimental: All animal work was conducted either on CR57BL/6 mice, obtained from Charles River Laboratories, Wilmington, Mass., USA, or on homozygous transgenic mice overexpressing human tau with the P301S mutation on a C57BL/6 background, originally developed by Michel Goedert (Xu et al. 2014), obtained by own breeding. Animals were kept at 23±1° C. under standard 12 h light-dark cycle with free access to food and water. They were handled according to the EU Council Directive 2010/63/EU, the Guide for the Care and Use of Laboratory Animals (National Research Council 2011) and the guidelines of the local institutional committee. The experiments were authorized by the local authority “Regierung von Oberbayern” under application number 55.2-1-54-2532-165-13. […]
For the efficacy trial in the early disease stage (Xu et al. 2014), P301S mice (n=8 per group) and wild type littermates (n=9 per group) received once daily i.p. injections of 2 mg/kg CCT020312 or equivalent volumes of saline from 9 to 14 weeks of age; they were analyzed with the Morris Water Maze in the 15th week of age.
To analyze spatial learning and memory, the Morris water maze test was performed at 15 weeks of age (n=8 per group) in a cylindrical water basin (diameter 120 cm) filled with water with a depth of 31 cm. […] Tracks of training and probe trial were recorded with the computerized Viewer2 system (Biobserve, Mannheim, Germany).

[2] = system: pathological tau species; assay: Immunoblot of tau species in P301S mouse brains; format: in vivo; settings: P301S mice, 2 mg/kg i.p. once daily for 6 weeks from 17 weeks of age, vs saline
Experimental: For the efficacy trial in the late disease stage (Xu et al. 2014), P301S mice and wild type littermates received once daily i.p. injections of 2 mg/kg CCT020312 or saline from 17 to 22 weeks of age (n=12 for CCT020312 treated P301S mice, n=9 for other groups); they were analyzed with the Rotarod test in the 23rd week of age.
Twelve hours after the last injection, animals were anesthetized by i.p. injections of pentobarbital at (100 mg/kg) and transcardially perfused with 0.1 M phosphate buffer for 2 min, then fixed for 10 min with 4% paraformaldehyde. Post-fixation of the brain was done in 4% paraformaldehyde at 4° C. for 48 h. Their brains were prepared for histological analysis, as described (Xu et al. 2014). For the immunoblot analysis in P301S mice and wild type mice were sacrificed by cervical dislocation, their brains were frozen on dry ice and stored at −80° C. for Western blot analysis.
Frontal cortex tissue was dissected from the fresh-frozen sample on dry ice and suspended in 750 μl of T-PER Tissue Protein Extraction Reagent (Thermo Fisher Scientific) and 1× cOmplete Protease Inhibitor Cocktail Tablets (Hoffmann-La Roche) and 1× PhosSTOP Phosphatase Inhibitor Cocktail Tablets (Hoffmann-La Roche). The tissue piece was initially ground with a pestle inside a microcentrifuge tube on ice and then homogenized by sonification with Branson Sonifier 450 Analog (Branson, now Thermo Fisher Scientific) with 10×500 ms bursts at intensity level 3 on ice. […] Protein concentrations were determined using the BCA kit (Thermo Fisher Scientific) by heating the samples at 60° C. for 30 minutes and measuring the absorption on the NanoDrop 2000c spectrophotometer (Thermo Fisher Scientific).
20 μg of protein (200 μg for pPERK blots) were adjusted to equal concentrations between samples by dilution with M-PER and subsequently heated at 95° C. for 5 minutes with Roti®-Load 1 (Carl Roth). […] Chemiluminescence was detected with the Gel Doc™ XR System (BioRad) and analyzed with the Image Lab™ software (BioRad), followed by graphical and statistical analysis with Prism 6 (GraphPad Software).

## CCN(CC)CCC(=O)N1N=C(c2c(-c3ccccc3)c3cc(Br)ccc3[nH]c2=O)CC1c1ccc(Br)cc1 (centres unmarked) [CCT020312, 6-bromo-3-[5-(4-bromo-phenyl)-1-(3-diethylamino-propionyl)-4,5-dihydro-1H-pyrazol-3-yl]-4-phenyl-1H-quinolin-2-one]
[1]; P301S tau mice, vs saline
  latency to find the hidden platform / learning curve: significantly improved; also recorded: steeper learning curve
[1]; wild type mice
  latency to find the hidden platform / learning curve: did not significantly affect; also recorded: did not change the learning curve
[2]
  AT180-immunoreactivity (paired helical filament tau), immunoblot: decreased
  CP13-immunoreactivity (S202-phosphorylated tau), immunoblot: decreased
  MC1-immunoreactivity (conformationally changed tau), immunoblot: decreased
